Assays:
[1] = molecular target: T1, recombinant Btk kinase enzyme (Homo sapiens, UniProt Q06187); test: In vitro inhibition of Btk kinase activity (ADP-Glo); format: biochemical; settings: Table 8; ADP-Glo; read-out: IC50 kinase BTK
T1 construct: purchased SignalChem B10-10H
Description: To assess Btk kinase activity described herein, SignalChem kinase system was used. Btk kinase activity was determined in the reaction between recombinant Btk kinase enzyme (SignalChem #B10-10H) and Poly (4:1 Glu, Tyr) peptide substrate in the presence of the inhibitor.
Staurosporine (Abcam Biochemicals, ab146588) was used as a reference inhibitor and 0.1% DMSO in the reaction buffer—as a negative control. The solution of 0.5 mg/mL peptide substrate and 50 &M ATP in the same buffer were added; the solution was incubated for 180 minutes at 37° C. To detect the amount of ATP taken up during the kinase reaction, the equivalent amount of ADP (from the ADP Glo Detection Kit (Promega, #V9101)) was used according to the protocol. The reaction mixture was equilibrated to room temperature. 25 µL of ADP-Glo Reagent were added into each well; the plate was incubated for 40 minutes. 50 μL of Kinase Detection Reagent were added; the plate was incubated for 30 minutes. The luminescence was measured with multimode plate reader (Tecan Infinite M200Pro, Switzerland). IC50 values were calculated using Magellan 7.2 software (Tecan, Switzerland) approximating experimental points by four-parameter logistic model with the optimization by Levenberg-Marquardt.

[2] = Permeability through the monolayer of Caco-2 cells; format: in vitro ADME; settings: human; for Papp A→B at 2 h, 10 μM / Papp B→A at 2 h, 10 μM: 2 h at 37° C.; for efflux ratio at 2 h, 10 μM: read-out: efflux (Papp B-A/Papp A-B)
Text: Assessment of permeability through the monolayer of Caco-2 cells allows to evaluate the ability of the candidate compounds to penetrate through biological membranes by active and passive transport.
Caco-2, the cells of the intestinal epithelium, had been cultured in transwell plate inserts with the filters (with pores of 0.4 μm, BD Falcon with High Density, #353495) for 21 days, and then the integrity of the monolayer were estimated with Lucifer Yellow dye (Sigma-Aldrich, USA) by standard protocol. When setting the A→B transfer, solutions of test substances were added in a buffer with pH 6.5 (Hanks solution, 10 mM HEPES, 15 mM glucose solution) with the concentration of 10 μM into the upper chamber; the lower chamber was filled with a buffer with pH 7.4 (Hanks solution, 10 mM HEPES, 15 mM glucose solution, 1% BSA). When setting B→A transfer, the upper chamber was filled with the buffer with pH 6.5, and solutions of the test substances were added in the buffer with pH 7.4 at the concentration of 10 μM in the lower chamber. Propranolol was used as a control substance (as it has high permeability).
We used gradient elution (1 mL/min flow rate). We determined the areas of peaks corresponding to the compounds. On the basis of peak areas in the calibration standards we determined the concentration of compound in the initial solution and in the samples from the wells of the upper and lower chambers.
Papp, permeability through the cell layer, was calculated using the following formula:
Papp=(C(t)*V)/(C(0)*t*Area), where
Papp is the effective constant of permeability, m/s V is the volume of solution (0.8 ml in A→B test, 0.2 ml in B→A test), ml Area is the surface area of the membrane (0.33 cm^2), cm^2 t is the time of incubation (7200 sec), sec C(0) is the concentration of the initial solution, μM C(t) is the concentration of the solution after 2 hours (the concentration in the sample from the well of the lower chamber in A→B test; the concentration in the sample from the well of the top chamber in B→A test), μM
The value was calculated with the following formula:
efflux=Papp B-A/Papp A-B, where
Papp A-B is the value of the permeability in the direct test (A→B); Papp B-A is the value of the permeability in the backward test in (B→A).

[3] = Stability in human blood plasma; settings: 10 μM in pooled human blood plasma, incubated 4 hours at 37° C.
Description: To assess the blood plasma stability of the drug candidates, we used pooled human blood plasma taken from ten healthy donors. The initial solution (10 Mm in DMSO) was diluted with pooled blood plasma to 10 μM (test solution). The test solution had been incubated for 4 hours in a dry block heater at 37° C. We determined peak areas of the compounds corresponding to the start of the test (before incubating) and the end of the test (after incubating in a dry block heater at 37° C.) by HPLC using Agilent1200 chromatograph (Agilent, USA) with preliminary protein precipitation with acetonitrile. We used gradient elution (1 mL/min flow rate). We determined amount of substance in the sample in % after incubation.
(§3) We evaluated the stability of the compounds.

[4] = General cytotoxicity on HepG2 cells (CC50; therapeutic index CC50 HepG2/IC50 Mino); format: cell-based; settings: human, HepG2 cells (hepatocellular carcinoma); Table 10; 72 hours, Alamar Blue; average of several tests
How it was run: (§1)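 Cells seeded at 2*10^4 per well in DMEM, compounds added after 24 h at 200 μM to 4 μM final and incubated 72 h. Viability read with Alamar Blue to derive CC50; therapeutic index is CC50 (HepG2) divided by IC50 (Mino).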

[5] = tested on: HepG2 cells (hepatocellular carcinoma); test: as above; format: cell-based; settings: Table 10; therapeutic index
How it was run: as §1

[6] = tested on: Z-138 (mantle cell lymphoma); test: Antiproliferative activity, Z-138 cells (Alamar Blue); format: cell-based; settings: Homo sapiens, Table 10, 72 h, average of several tests
How it was run: (§2)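 After at least one passage post-thaw, cells were seeded at ≈3*10^4 per well in RPMI-1640 containing 10% FBS. They were treated with compound dilutions (DMSO under 1%) for 72 h and then with Alamar Blue for 14-16 h. Living-cell fluorescence at 540/590 nm gave IC50 values through logistic fitting.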

[7] = tested on: Mino (mantle cell lymphoma); test: Antiproliferative activity, Mino cells (Alamar Blue); format: cell-based; settings: Homo sapiens, Table 10, 72 h, average of several tests
How it was run: as §2

[8] = tested on: DOHH2 (follicular lymphoma); test: Antiproliferative activity, DOHH2 cells (Alamar Blue); format: cell-based; settings: Homo sapiens, DOHH-2, Table 10, 72 h, average of several tests
Description: Antiproliferative activity of BTK inhibitors was measured in cell-based bioassay on B-cells cultures: Mino (mantle cell lymphoma, ATCC® CRL-3000™), Z-138 (mantle cell lymphoma, ATCC® CRL-3001™) and DOHH2 (follicular lymphoma, Creative Bioarray CSC-C0219) using cell viability reagent Alamar Blue (Invitrogen, #DAL 1100). Cells were cultured in 10% FB S-supplemented (HyClone, #SH3008803/Gibco, #16140-071) RPMI-1640 (PanEco, #S330p) for at least 1 passage after thawing, washed with PBS and passaged in 96-well culture plates (Corning, #3599) with growth medium with 10% FBS (HyClone, #SH3008803/Gibco, #16140-071) and antibiotic (50 μg/ml of gentamicin (Biolot, #1.3.16))≈3*10^4 cells in 50 μl of medium per well.
The compounds were dissolved in DMSO and diluted with the assay medium to final concentrations ranging from […]. 150 μl of each diluted compound were then added to each well (final concentration of DMSO was less than 1%) and incubated at 37° C. in an incubator under 5% of CO2 for 72 h. After incubation, 20 μl of Alamar Blue reagent (Invitrogen, #DAL1100) were added to each well. The plates were shaked on an orbital shaker (Biosan, Latvia) and then incubated for 14-16 hours at 37° C. in the incubator.
The number of living cells were estimated, measuring the fluorescence signal at the excitation wavelength (REx) of 540 nm and the emission wavelength (λEm) of 590 nm on a microplate reader (Tecan Infinite M200Pro, Switzerland).
For each compound, IC50 was calculated using Magellan 7.2 software (Tecan, Switzerland) approximating experimental points by four-parameter logistic model with the optimization by Levenberg-Marquardt.

[9] = Chemical stability in artificial gastric fluid (SGF without enzymes); settings: 10 μM in SGF without enzymes, pH=1.4, 37° C.
Description: The initial candidate solution (10 mM in DMSO) was diluted with the working solution of SGF to the concentration of 10 μm (test solution). The test solution was incubated in a dry block heater at 37° C. We determined peak areas of the compounds corresponding to the start of the test (before incubating) and the end of the test (after incubating in a dry block heater at 37° C.) by HPLC using Agilent1200 chromatograph (Agilent, USA). We used gradient elution (1 mL/min flow rate). We determined amount of substance in the sample in % after incubation.
as §3

T1 sequence (Q06187 whole entry): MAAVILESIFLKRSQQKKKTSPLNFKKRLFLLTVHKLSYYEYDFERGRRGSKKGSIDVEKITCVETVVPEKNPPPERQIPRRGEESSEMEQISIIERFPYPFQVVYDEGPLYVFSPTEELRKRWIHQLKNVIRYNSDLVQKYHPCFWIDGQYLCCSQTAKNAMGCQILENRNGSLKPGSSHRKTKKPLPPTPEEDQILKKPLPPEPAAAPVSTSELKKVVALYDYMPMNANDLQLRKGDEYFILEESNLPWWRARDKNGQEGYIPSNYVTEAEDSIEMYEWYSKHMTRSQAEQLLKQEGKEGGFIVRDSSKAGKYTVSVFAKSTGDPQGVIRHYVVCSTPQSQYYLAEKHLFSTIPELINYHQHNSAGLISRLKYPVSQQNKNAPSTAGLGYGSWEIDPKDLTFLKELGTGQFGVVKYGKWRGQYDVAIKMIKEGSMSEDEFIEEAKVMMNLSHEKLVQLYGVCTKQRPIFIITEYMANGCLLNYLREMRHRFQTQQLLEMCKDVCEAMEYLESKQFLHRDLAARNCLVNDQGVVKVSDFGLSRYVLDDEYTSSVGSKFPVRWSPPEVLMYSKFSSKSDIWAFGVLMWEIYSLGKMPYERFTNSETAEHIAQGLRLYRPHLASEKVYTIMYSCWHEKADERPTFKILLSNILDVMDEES

C=CC(=O)N1CCC[C@@H](n2nc(-c3ccc(Oc4ccncc4)cc3)c3c(N)ncc(C(N)=O)c32)C1 [BCD-BTK-135, (R)-1-(1-acryloylpiperidin-3-yl)-4-amino-3-(4-(pyridin-4-yloxy)phenyl)-1H-pyrazolo[4,3-c]pyridin-7-carboxamide]
IC50 [1]: 0.00628 µM

C=CC(=O)N1CCC[C@@H](n2nc(-c3ccc(Oc4ccncc4)cc3)c3cncc(F)c32)C1 [BCD-BTK-211, (R)-1-(3-(7-fluoro-3-(4-(pyridin-4-yloxy)phenyl)-1H-pyrazolo[4,3-c]pyridin-1-yl)piperidin-1-yl)prop-2-en-1-one]
Papp A→B at 2 h, 10 μM [2]: 192 nm/s
Papp B→A at 2 h, 10 μM [2]: 35.5 nm/s
efflux ratio at 2 h, 10 μM [2]: 0.18
Amount of substance in the sample, % (stability in human blood plasma) [3]: 94.8%
CC50 at 72 h [4]: 45.2 µM
CC50 (HepG2)/IC50 (Mino) [5]: 7.97
IC50 [6]: 17.3 µM
IC50 [7]: 5.67 µM
IC50 [8]: 23 µM

C=CC(=O)N1CCC[C@@H](n2nc(-c3ccc(Oc4cccnc4C#N)cc3)c3cncc(C#N)c32)C1 [BCD-BTK-216, (R)-1-(1-acryloylpiperidin-3-yl)-3-(4-(2-cyanopyridin-3-yloxy)phenyl)-1H-pyrazolo[4,3-c]pyridine-7-carbonitrile]
Papp A→B at 2 h, 10 μM [2]: 296 nm/s
Papp B→A at 2 h, 10 μM [2]: 87.2 nm/s
efflux ratio at 2 h, 10 μM [2]: 0.29
Amount of substance in the sample, % (stability in human blood plasma) [3]: 80.4%
CC50 at 72 h [4]: 40.1 µM
CC50 (HepG2)/IC50 (Mino) [5]: 18.77
IC50 [6]: 12.1 µM
IC50 [7]: 2.14 µM
IC50 [8]: 9.52 µM

C=CC(=O)N1CCC[C@@H](n2nc(-c3ccc(Oc4ccncc4C#N)cc3)c3cncc(F)c32)C1 [BCD-BTK-217, (R)-4-(4-(1-(1-acryloylpiperidin-3-yl)-7-fluoro-1H-pyrazolo[4,3-c]pyridin-3-yl)phenoxy)nicotinonitrile]
Papp A→B at 2 h, 10 μM [2]: 373 nm/s
Papp B→A at 2 h, 10 μM [2]: 189 nm/s
efflux ratio at 2 h, 10 μM [2]: 0.51
Amount of substance in the sample, % (stability in human blood plasma) [3]: 90.8%
CC50 at 72 h [4]: 40.1 µM
CC50 (HepG2)/IC50 (Mino) [5]: 2.31
IC50 [6]: 13.9 µM
IC50 [7]: 17.4 µM
IC50 [8]: 16.1 µM

C=CC(=O)N1CCC[C@@H](n2nc(-c3ccc(C(=O)Nc4cc(C(F)(F)F)ccn4)cc3)c3cncc(C#N)c32)C1 [BCD-BTK-221, 4-{7-cyano-1-[1-(prop-2-enoyl)piperidin-3-yl]-1H-pyrazolo[4,3-c]pyridin-3-yl}-N-[4-(trifluoromethyl)pyridin-2-yl]benzamide]
Amount of substance in the sample, % (stability in human blood plasma) [3]: 80.5%
CC50 at 72 h [4]: 5.32 µM
CC50 (HepG2)/IC50 (Mino) [5]: 0.51
Amount of substance in the sample in % (chemical stability) [9]: 91.3%
IC50 [6]: 4.98 µM
IC50 [7]: 10.5 µM
IC50 [8]: 3.05 µM
